In patent publication US20220202780A1, “PHARMACEUTICAL COMPOSITIONS AND COMBINATIONS COMPRISING INHIBITORS OF THE ANDROGEN RECEPTOR AND USES THEREOF” (ESSA Pharma, Inc., priority 2019, published 2022):
pIC50: −log10 of the molar value.

Experiments:
[1] = system: Androgen-induced PSA-luciferase; assay: Androgen-induced PSA (6.1 kb)-luciferase reporter assay in LNCaP cells; format: cell-based; conditions: Homo sapiens, R1881 1 nM, 24 h
Method: To determine the IC50, treatments were normalized to the maximum activity with androgen-induction (in the absence of test compounds, vehicle only) (Table 1).
Luciferase Assay: Lysates were thawed on ice then collected into V-bottom 96-well tissue culture plates. Lysates were centrifuged at 4° C. for 5 minutes at 4000 rpm. To measure luminescence of LNCaP cell lysates the Firefly Luciferase Assay System (Promega) was employed, according to manufacturer's protocol.
Comparisons between treatment and control groups were compared using Two-Way ANOVA with post-hoc Dunnett's and Tukey's tests. Differences were considered statistically significant at P values less than 0.05. Densitometric quantification of relative AR levels was determined by Image.

[2] = system: androgen responsive genes in LNCaP cells; assay: mRNA expression of androgen responsive genes in LNCaP cells (NanoString Androgen Receptor/Prostate Cancer gene panel)
VCaP tumors = assay: VCaP xenograft model, castrated male SCID Beige mice; format: in vivo; conditions: oral, castrated male SCID Beige mice (FIGS. 1-4)
Method: Tumor growth was measured in male SCID Beige mice bearing VCaP tumors. […] Individual tumor volume change from baseline measured on day 17 of the experiment (FIGS. 2A-2B). Serum prostate-specific antigen (PSA) was measured in mice at the end of each treatment (FIG. 3). Body weight of the mice were captured biweekly in the animals and normalized to baseline (FIG. 4).

[3] = system: AR full-length and AR V7 driven genes in LNCaP95 cells; assay: mRNA expression of androgen responsive genes in LNCaP95 (+R1881) cells (NanoString Androgen Receptor/Prostate Cancer gene panel)
Method: Relative mRNA expression in LNCaP95 (+R1881) was measured for Canonical AR target genes (FIG. 9A) and AR V7-activated genes (FIG. 9B).
Data shown in FIGS. 8A-8B and 9A-9B and Table 5 were generated using NanoString Androgen Receptor/Prostate Cancer gene panel.

CC(C)(c1ccc(OCc2ocnc2S(C)(=O)=O)cc1)c1cc(Cl)c(OCCCl)c(Cl)c1 [Compound A13, 5-((4-(2-(3,5-dichloro-4-(2-chloroethoxy)phenyl)propan-2-yl)phenoxy)methyl)-4-(methylsulfonyl)oxazole]
pIC50 [1]: 6.23

CC(C)(c1ccc(OCc2ocnc2S(C)(=O)=O)cc1)c1cc(Cl)c(OCCCl)c(C#N)c1 [Compound A28]
pIC50 [1]: 6.40

Cc1cc(C(C)(C)c2ccc(OCc3ocnc3S(C)(=O)=O)cc2)cc(C#N)c1OCCCl [Compound A29]
pIC50 [1]: 6.33

CC(Oc1ccc(C(C)(C)c2cc(Cl)c(OCCCl)c(Cl)c2)cc1)c1ocnc1S(C)(=O)=O (centres unmarked) [Compound A35, 5-(1-(4-(2-(3,5-dichloro-4-(2-chloroethoxy)phenyl)propan-2-yl)phenoxy)ethyl)-4-(methylsulfonyl)oxazole]
pIC50 [1]: 6.29

CC(C)(c1ccc(OCc2coc(NS(C)(=O)=O)n2)cc1)c1cc(Cl)c(OCCCl)c(Cl)c1 [Compound A38, N-(4-((4-(2-(3,5-dichloro-4-(2-chloroethoxy)phenyl)propan-2-yl)phenoxy)methyl)oxazol-2-yl)methanesulfonamide]
pIC50 [1]: 6.20

CC(C)(c1ccc(OCc2ncc(S(C)(=O)=O)o2)cc1)c1cc(Cl)c(OCCCl)c(Cl)c1 [Compound A66]
pIC50 [1]: 6.05

CC(C)(c1ccc(OCc2ccnc(NS(C)(=O)=O)n2)cc1)c1cc(Cl)c(OCCCl)c(Cl)c1 [Compound A74]
pIC50 [1]: 6.18

CC(C)(c1ccc(OCc2ncc(S(C)(=O)=O)s2)cc1)c1cc(Cl)c(OCCCl)c(C#N)c1 [Compound A93]
pIC50 [1]: 6.69

CC(C)(c1ccc(OCc2ccnc(NS(C)(=O)=O)n2)cc1)c1cc(Cl)c(OCCCl)c(C#N)c1 [Compound A109, N-(4-((4-(2-(3-chloro-4-(2-chloroethoxy)-5-cyanophenyl)propan-2-yl)phenoxy)methyl)pyrimidin-2-yl)methanesulfonamide]
response in the androgen response genes FKBP5, TMPRSS2, KLK2, KLK3, and NKX3.1 (relative mRNA expression) ([2]; LNCaP cells, FIG. 6A): dose-dependent response | Log2Fold Change ACSL3 ([2]; LNCaP, 7.5 μM single agent): −3.62 | Log2Fold Change AKAP12 ([2]; LNCaP, 7.5 μM single agent): −3.84 | Log2Fold Change CDC6 ([2]; LNCaP, 7.5 μM single agent): −3.60 | Log2Fold Change CENPN ([2]; LNCaP, 7.5 μM single agent): −2.13 | Log2Fold Change EAF2 ([2]; LNCaP, 7.5 μM single agent): −3.81 | Log2Fold Change ELL2 ([2]; LNCaP, 7.5 μM single agent): −3.05 | Log2Fold Change ERRFI1 ([2]; LNCaP, 7.5 μM single agent): −2.76 | Log2Fold Change FAM105A ([2]; LNCaP, 7.5 μM single agent): −2.78 | Log2Fold Change FKBP5 ([2]; LNCaP, 7.5 μM single agent): −4.47 | Log2Fold Change KLK2 ([2]; LNCaP, 7.5 μM single agent): −2.71 | Log2Fold Change KLK3 ([2]; LNCaP, 7.5 μM single agent): −2.42 | Log2Fold Change NCAPD3 ([2]; LNCaP, 7.5 μM single agent): −4.40 | Log2Fold Change NDRG1 ([2]; LNCaP, 7.5 μM single agent): −4.17 | Log2Fold Change NKX3-1 ([2]; LNCaP, 7.5 μM single agent): −2.28 | Log2Fold Change PLPP1 ([2]; LNCaP, 7.5 μM single agent): −3.53 | Log2Fold Change PMEPA1 ([2]; LNCaP, 7.5 μM single agent): −2.16 | Log2Fold Change RHOU ([2]; LNCaP, 7.5 μM single agent): −3.03 | Log2Fold Change SNAI2 ([2]; LNCaP, 7.5 μM single agent): −1.79 | Log2Fold Change STEAP4 ([2]; LNCaP, 7.5 μM single agent): −4.22 | Log2Fold Change TMPRSS2 ([2]; LNCaP, 7.5 μM single agent): −3.32 | modulation of androgen receptor full-length driven genes ([2]; LNCaP, FIGS. 5A-5B and Table 4): can modulate androgen receptor0 full-length driven genes similar to enzalutamide | pIC50 [1]: 6.27 | anti-tumor response (VCaP tumors; in combination with enzalutamide): excellent anti-tumor response | anti-tumor response (VCaP tumors; monotherapy): excellent anti-tumor response | log2 Fold Change ADAMTS1 ([3]; 7.5 μM): −3.96 | log2 Fold Change CCND1 ([3]; 7.5 μM): −3.96 | log2 Fold Change FKBP5 ([3]; 7.5 μM): −4.18 | log2 Fold Change KLK2 ([3]; 7.5 μM): −5.07 | log2 Fold Change KLK3 ([3]; 7.5 μM): −5.48 | log2 Fold Change NCAPD3 ([3]; 7.5 μM): −3.8 | log2 Fold Change NDRG1 ([3]; 7.5 μM): −4.47 | log2 Fold Change NKX3-1 ([3]; 7.5 μM): −4.23 | log2 Fold Change PMEPA1 ([3]; 7.5 μM): −3.93 | log2 Fold Change PRR15L ([3]; 7.5 μM): −3.89 | modulation of AR full-length and AR V7 driven genes ([3]; FIGS. 8A-8B and 9A-9B): can modulate AR full-length and AR V7 driven genes

Cc1cnc(NS(C)(=O)=O)nc1COc1ccc(C(C)(C)c2cc(Cl)c(OCCCl)c(C#N)c2)cc1 [Compound A122]
pIC50 [1]: 6.59

CCS(=O)(=O)Nc1nc(COc2ccc(C(C)(C)c3cc(Cl)c(OCCCl)c(C#N)c3)cc2)co1 [Compound A126]
pIC50 [1]: 6.20

CCS(=O)(=O)Nc1nccc(COc2ccc(C(C)(C)c3cc(Cl)c(OCCCl)c(C#N)c3)cc2)n1 [Compound A131]
pIC50 [1]: 5.96

CC(C)(c1ccc(OCc2nc(S(C)(=O)=O)cs2)cc1)c1cc(Cl)c(OCCCl)c(C#N)c1 [Compound A136]
pIC50 [1]: 6.22

C[C@H](Oc1ccc(C(C)(C)c2cc(Cl)c(OCCCl)c(Cl)c2)cc1)c1ccnc(NS(C)(=O)=O)n1 [Compound A170]
pIC50 [1]: 6.19

CC(O)c1cc(C(=O)N[C@@H](C)Cn2ccc(-c3ccc(C#N)c(Cl)c3)n2)[nH]n1 (some centres unmarked) [Darolutamide, darolutamide, reference compound]
activity on gene expression in LNCaP ([2]; LNCaP cells, FIG. 7A-7B): not very active
